Among the test systems are SK-MEL-28; Malme-3M; RXF 393; UO-31; COLO 205; SF-268; EKVX; SN12C; NCI-H226; LOX IMVI; K562; A549; SNB-19; SF-295; M14; UACC-257; SNB-75; MDA-MB-435.
Test in all cases: NCI anticancer screen, dose series, 48 h

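Step 1: Grow cells in 96-well plates. Step 2: Expose to compound for 48 hours at 5 concentrations. Step 3: Interpolate endpoints linearly; if unreached, use highest concentration. Abbreviation: GI50, concentration required for 50% inhibition of growth.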 Active and inactive are the calls of the source. No stated cut-off is given here; in the data, active = GI50 up to about 1.1 µM and inactive = higher.

With `C[s+]1c2ccccc2c2ccccc21`, the GI50 in the test with SK-MEL-28 was > 100 µM (inactive); in the test on Malme-3M it was > 100 µM (inactive); in the test on RXF 393, > 100 µM (inactive); in the test with UO-31 it was 34.2 µM (inactive); in the test with COLO 205, > 100 µM (inactive); with SF-268, > 100 µM (inactive). Besides, the GI50 in the test with EKVX is > 100 µM (inactive); with SN12C, > 100 µM (inactive); in the test on NCI-H226, 58.5 µM (inactive); in the test on LOX IMVI, > 100 µM (inactive); with K562, > 100 µM (inactive); in the test on A549, > 100 µM (inactive). The values for the GI50 with SNB-19, in the test on SF-295 and with M14 were 74.1 µM (inactive), > 100 µM (inactive) and > 100 µM (inactive), respectively.
Take `O=C1c2ccccc2C(=O)N1CC#CCO`: the GI50 in the test on SK-MEL-28, with RXF 393, in the test on UO-31, in the test with SF-268, in the test with EKVX and in the test with SN12C was > 100 µM (inactive) throughout. Besides, the GI50 in the test with NCI-H226, in the test on K562, in the test with A549, in the test with SNB-19, with SF-295 and in the test on M14 was > 100 µM (inactive) in each case. For the same compound, in the test on UACC-257, the GI50 is > 100 µM (inactive).
`Cc1cccc2c(N)c3cccc(C(=O)NCCN4CCOCC4)c3nc12`: the GI50 in the test with SK-MEL-28 is 1.45 µM (inactive); with Malme-3M, 0.28 µM (active); in the test on RXF 393, 0.697 µM (active); in the test with UO-31, 0.46 µM (active); in the test on COLO 205, 0.294 µM (active); with SNB-75, 0.13 µM (active). Further, the GI50 with SF-268 is 0.0603 µM (active); in the test on EKVX, 0.664 µM (active); with SN12C, 0.364 µM (active); in the test with LOX IMVI, 0.23 µM (active); in the test with K562, 0.203 µM (active); with A549, 0.192 µM (active). Besides, the GI50 in the test on SNB-19 is 0.236 µM (active); in the test with SF-295, 0.318 µM (active); in the test with MDA-MB-435, 0.57 µM (active); in the test with M14 it was 0.495 µM (active); in the test with UACC-257 it was 0.912 µM (active).
Consider `Fc1ccc(Oc2nc3ccccc3nc2-c2ccccc2)cc1`, for which the GI50 in the test with SK-MEL-28 was > 100 µM (inactive); in the test with Malme-3M it was > 100 µM (inactive); in the test with RXF 393 it was 37.2 µM (inactive); in the test with UO-31, > 100 µM (inactive); with COLO 205 it was > 100 µM (inactive); in the test on SF-268, > 100 µM (inactive). Moreover, the GI50 in the test on EKVX, with SN12C, with NCI-H226, with LOX IMVI, with K562 and with SNB-19 was > 100 µM (inactive) in each case. Besides, the GI50 in the test with SF-295, in the test on MDA-MB-435 and with UACC-257 was > 100 µM (inactive) each time.
Take `CN(C)c1ccc(/C=C/c2cc(-c3ccccc3)[n+](C)n2-c2ccccc2)cc1`: the GI50 was 0.597 µM (active) in the test with SK-MEL-28; 0.281 µM (active) in the test on RXF 393; 1.86 µM (inactive) in the test on UO-31; 0.094 µM (active) in the test on COLO 205; 0.431 µM (active) in the test with SF-268; 0.138 µM (active) in the test on EKVX. The GI50 with SN12C is 0.293 µM (active); in the test with NCI-H226, 0.138 µM (active); in the test with LOX IMVI, 0.299 µM (active); with K562, 0.0531 µM (active); in the test with A549, 0.411 µM (active); in the test on SNB-19 it was 0.0865 µM (active). For the same compound, the GI50 was 0.614 µM (active) with SF-295, 0.158 µM (active) in the test on MDA-MB-435, 0.617 µM (active) in the test on M14 and 0.122 µM (active) in the test on UACC-257.
